# Like-named read-outs stand apart in the source and are kept apart here. Bridge positions count the residues as written; N and C are the ends. Square brackets hold non-standard residues; d marks the D form. Peptide text beside a SMILES is read from it. d2Nal = N[C@H](Cc1ccc2ccccc2c1)C(=O)O; Nle = CCCC[C@H](N)C(=O)O
# How the values were obtained:
# [1] = molecular target: T1, lamprey MCa receptor (Lampetra fluviatilis, UniProt A6XB56); test: Radioligand binding assay (saturation and competition, [125I] NDP-MSH), lamprey MCa; parameters: species or system river lamprey; settings: for affinity for lamprey MCa compared to the human MC1 and MC3 receptors: p < 0.01 for α-MSH, γ-MSH, ACTH(1–39)
# T1 sequence (A6XB56 1-341): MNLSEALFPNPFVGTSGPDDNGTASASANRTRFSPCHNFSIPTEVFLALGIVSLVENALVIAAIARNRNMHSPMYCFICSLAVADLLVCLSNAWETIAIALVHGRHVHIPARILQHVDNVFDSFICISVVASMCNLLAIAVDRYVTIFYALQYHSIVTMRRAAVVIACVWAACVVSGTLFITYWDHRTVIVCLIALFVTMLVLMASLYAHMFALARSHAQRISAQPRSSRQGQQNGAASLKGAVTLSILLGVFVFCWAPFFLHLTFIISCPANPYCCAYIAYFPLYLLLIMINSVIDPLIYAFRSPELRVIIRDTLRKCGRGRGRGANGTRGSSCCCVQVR
# Description: HEK-293 (human embryonic kidney) cells with Epstein-Barr nuclear antigen (EBNA) grown to 50–70% confluence were transfected with 10 μg of the construct using FuGENE-6 Transfection Reagent (Roche, Sweden) according to the manufacturers' instruction. The cells were grown in Dulbeccos Modified Eagle Media and F-12 Nutrient Mixture (D-MEM/F-12) (1:1) with GlutaMAX I containing 10% foetal bovine serum, 100 u/ml penicillin, 100 μg/ml streptomycin, 2.5 ug/ml amphotericin B, and 250 μg/ml geneticin G-418 (Invitrogen); in humidified atmosphere of 95% air and 5% CO2 at 37°C. Semi-stable cell lines, expressing target receptor, were obtained by selecting for growth in the presence of 100 μg/ml hygromycin B (Invitrogen), first added 24 hours after transfection.
# HEK-293 EBNA cells expressing MC receptors were harvested from plate and resuspended in binding buffer composed of 25 mM HEPES, 2.5 mM CaCl2, 1 mM MgCl2 and 0.2% bacitracin, pH adjusted to 7.4. To obtain the membranes, cells were mechanically homogenized with Ultra Turrax. Cell suspensions were centrifuged for 3 min at 190 g and membranes were collected from the supernatant by centrifugation for 15 min at 20000 g. The pellet was resuspended in binding buffer. The binding was performed in a final volume of 100 μl for 2 h at room temperature. Saturation experiments were carried out with serial dilutions of [^125I] […] Competition experiments were performed with constant 0.6 nM concentration of [^125I] […] The membranes were collected by filtration on Glass Fibre filters, Filtermat A (Perkin Elmer, USA), using a TOMTEC Mach III cell harvester (Orange, CT, USA). The filters were washed with 5 ml per well of 50 mM Tris HCl (pH 7.4) and dried at 50°C. MeltiLex A scintillator sheets (Perkin Elmer, USA) were melted on dried filters and radioactivity was counted with an automatic Microbeta counter 1450 (Perkin Elmer). Binding assays were performed in duplicate with at least three independent experiments. […] The results were analysed with Prism 3.0 software package (GraphPad, USA). Binding affinities were compared with one-way ANOVA Tukey's post-hoc tests.
# [2] = molecular target: human MC1; settings: mean ± SEM, cited from earlier work; for Ki: competition
# [3] = molecular target: human MC3; settings: mean ± SEM, cited from earlier work; for Ki: competition
# [4] = molecular target: human MC4; settings: mean ± SEM, cited from earlier work; for Ki: competition
# [5] = molecular target: human MC5; settings: mean ± SEM, cited from earlier work; for Ki: competition
# [6] = system: Non-transfected cells (HEK-293 EBNA); test: Radioligand binding, non-transfected cells; parameters: species or system human; settings: [125I] NDP-MSH
# Description: HEK-293 EBNA cells expressing MC receptors were harvested from plate and resuspended in binding buffer composed of 25 mM HEPES, 2.5 mM CaCl2, 1 mM MgCl2 and 0.2% bacitracin, pH adjusted to 7.4. To obtain the membranes, cells were mechanically homogenized with Ultra Turrax. Cell suspensions were centrifuged for 3 min at 190 g and membranes were collected from the supernatant by centrifugation for 15 min at 20000 g. The pellet was resuspended in binding buffer. The binding was performed in a final volume of 100 μl for 2 h at room temperature. Saturation experiments were carried out with serial dilutions of [^125I] NDP-MSH { [Nle^4, D-Phe^7]α-MSH}, labelled by the Chloramine-T method. Non-specific binding was determined in the presence of 1 μM unlabeled NDP-MSH. Competition experiments were performed with constant 0.6 nM concentration of [^125I] NDP-MSH and serial dilutions of competing unlabelled human ligands: NDP-MSH, α-MSH, β-MSH, γ1-MSH, ACTH (1–17) ACTH (1–24) ACTH (1–39), MTII, HS024) (Neosystem, France) and lamprey ligands: MSH-A, MSH-B, ACTH(1–31). […] MeltiLex A scintillator sheets (Perkin Elmer, USA) were melted on dried filters and radioactivity was counted with an automatic Microbeta counter 1450 (Perkin Elmer). […] The results were analysed with Prism 3.0 software package (GraphPad, USA). […]
# [7] = comparison with previously published human values
# [8] = saturation, [125I] NDP-MSH, ref [42]
compound,measurement,setting,value
CSCC[C@H](NC(=O)[C@H](CO)NC(=O)[C@H](Cc1ccc(O)cc1)NC(=O)[C@@H](N)CO)C(=O)N[C@@H](CCC(=O)O)C(=O)N[C@@H](Cc1c[nH]cn1)C(=O)N[C@@H](Cc1ccccc1)C(=O)N[C@@H](CCCNC(=N)N)C(=O)N[C@@H](Cc1c[nH]c2ccccc12)C(=O)NCC(=O)N[C@@H](CCCCN)C(=O)N1CCC[C@H]1C(=O)N[C@H](C(=O)NCC(=O)N[C@@H](CCCCN)C(=O)N[C@@H](CCCCN)C(=O)N[C@@H](CCCNC(=N)N)C(=O)O)C(C)C [ACTH (1–17)],Ki,[1],0.0511 ± 0.0032 µM
same,affinity for lamprey MCa compared to the human MC4 and MC5 receptors,[1]; [7],clearly higher affinities
same,affinity for lamprey MCa compared to the human MC1 and MC3 receptors,[1]; [7],clearly lower affinities
same,Ki,[2]; ref [40],0.00023 ± 6.1e-05 µM
same,Ki,[3]; ref [40],0.014 ± 0.0045 µM
same,Ki,[4]; ref [40],0.419 ± 0.062 µM
same,Ki,[5]; ref [40],4.24 ± 1.2 µM
"CSCC[C@H](NC(=O)[C@H](CO)NC(=O)[C@H](Cc1ccc(O)cc1)NC(=O)[C@@H](N)CO)C(=O)N[C@@H](CCC(=O)O)C(=O)N[C@@H](Cc1cnc[nH]1)C(=O)N[C@@H](Cc1ccccc1)C(=O)N[C@@H](CCCNC(=N)N)C(=O)N[C@@H](Cc1c[nH]c2ccccc12)C(=O)NCC(=O)N[C@@H](CCCCN)C(=O)N1CCC[C@H]1C(=O)N[C@H](C(=O)NCC(=O)N[C@@H](CCCCN)C(=O)N[C@@H](CCCCN)C(=O)N[C@@H](CCCNC(=N)N)C(=O)N[C@@H](CCCNC(=N)N)C(=O)N1CCC[C@H]1C(=O)N[C@H](C(=O)N[C@@H](CCCCN)C(=O)N[C@H](C(=O)N[C@@H](Cc1ccc(O)cc1)C(=O)N1CCC[C@H]1C(=O)N[C@@H](CC(N)=O)C(=O)NCC(=O)N[C@@H](C)C(=O)N[C@@H](CCC(=O)O)C(=O)N[C@@H](CC(=O)O)C(=O)N[C@@H](CCC(=O)O)C(=O)N[C@@H](CO)C(=O)N[C@@H](C)C(=O)N[C@@H](CCC(=O)O)C(=O)N[C@@H](C)C(=O)N[C@@H](Cc1ccccc1)C(=O)N1CCC[C@H]1C(=O)N[C@@H](CC(C)C)C(=O)N[C@@H](CCC(=O)O)C(=O)N[C@@H](Cc1ccccc1)C(=O)O)C(C)C)C(C)C)C(C)C [ACTH (1–39), adrenocorticotropic hormone] (H-SYSMEHFRWGKPVGKKRRPVKVYPNGAEDESAEAFPLEF-OH)",Ki,[1],0.291 ± 0.02 µM
"CSCC[C@H](NC(=O)[C@H](CO)NC(=O)[C@H](Cc1ccc(O)cc1)NC(=O)[C@@H](N)CO)C(=O)N[C@@H](CCC(=O)O)C(=O)N[C@@H](Cc1c[nH]cn1)C(=O)N[C@@H](Cc1ccccc1)C(=O)N[C@@H](CCCNC(=N)N)C(=O)N[C@@H](Cc1c[nH]c2ccccc12)C(=O)NCC(=O)N[C@@H](CCCCN)C(=O)N1CCC[C@H]1C(=O)N[C@H](C(=O)NCC(=O)N[C@@H](CCCCN)C(=O)N[C@@H](CCCCN)C(=O)N[C@@H](CCCNC(=N)N)C(=O)N[C@@H](CCCNC(=N)N)C(=O)N1CCC[C@H]1C(=O)N[C@H](C(=O)N[C@@H](CCCCN)C(=O)N[C@H](C(=O)N[C@@H](Cc1ccc(O)cc1)C(=O)N1CCC[C@H]1C(=O)N[C@@H](CC(N)=O)C(=O)NCC(=O)N[C@@H](C)C(=O)N[C@@H](CCC(=O)O)C(=O)N[C@@H](CC(=O)O)C(=O)N[C@@H](CCC(=O)O)C(=O)N[C@@H](CO)C(=O)N[C@@H](C)C(=O)N[C@@H](CCC(=O)O)C(=O)N[C@@H](C)C(=O)N[C@@H](Cc1ccccc1)C(=O)N1CCC[C@H]1C(=O)N[C@@H](CC(C)C)C(=O)N[C@@H](CCC(=O)O)C(=O)N[C@@H](Cc1ccccc1)C(=O)O)C(C)C)C(C)C)C(C)C [ACTH (1–39), adrenocorticotropic hormone] (H-SYSMEHFRWGKPVGKKRRPVKVYPNGAEDESAEAFPLEF-OH; N-terminus and C-terminus assumed)",affinity for lamprey MCa compared to the human MC4 and MC5 receptors,[1]; [7],clearly higher affinities
same,affinity for lamprey MCa compared to the human MC1 and MC3 receptors,[1]; [7],clearly lower affinities
same,Ki,[2]; ref [40],0.00395 ± 0.00067 µM
same,Ki,[3]; ref [40],0.135 ± 0.022 µM
same,Ki,[4]; ref [40],2.17 ± 0.12 µM
same,Ki,[5]; ref [40],4.92 ± 0.61 µM
CCCC[C@@H]1NC(=O)[C@@H](NC(C)=O)CSSC[C@@H](C(N)=O)NC(=O)CNC(=O)[C@H](Cc2c[nH]c3ccccc23)NC(=O)[C@H](CCCNC(=N)N)NC(=O)[C@@H](Cc2ccc3ccccc3c2)NC(=O)[C@H](Cc2c[nH]cn2)NC(=O)[C@H](CCCNC(=N)N)NC1=O [HS024] (Ac-C[Nle]RH[d2Nal]RWGC-NH2; disulfide 1-9 (inferred); N-terminus and C-terminus assumed),Ki,[1],0.0725 ± 0.0014 µM
same,"affinity for lamprey MCa compared to the human MC1, MC3, MC4 and MC5 receptors",[1]; [7],clearly lower affinities
same,Ki,[2]; ref [41],0.0186 ± 0.0033 µM
same,Ki,[3]; ref [42],0.0151 ± 0.003 µM
same,Ki,[4]; ref [42],0.000341 ± 8.9e-05 µM
same,Ki,[5]; ref [41],0.00329 ± 0.00115 µM
"CCCC[C@H](NC(=O)[C@H](CO)NC(=O)[C@H](Cc1ccc(O)c(I)c1)NC(=O)[C@H](CO)NC(C)=O)C(=O)N[C@@H](CCC(=O)O)C(=O)N[C@@H](Cc1c[nH]cn1)C(=O)N[C@H](Cc1ccccc1)C(=O)N[C@@H](CCCNC(=N)N)C(=O)N[C@@H](Cc1c[nH]c2ccccc12)C(=O)NCC(=O)N[C@@H](CCCCN)C(=O)N1CCC[C@H]1C(=O)N[C@H](C(N)=O)C(C)C [[^125I] NDP-MSH, [Nle^4, D-Phe^7]α-MSH]",Kd,"[1]; read-out: Kd (mean ± SEM) from saturation curves, lamprey MCa, HEK-293 EBNA membranes, pH 7.4, 2 h, room temperature, non-specific binding with unlabelled NDP-MSH, mean ± SEM, duplicate, at least three independent experiments",0.00246 ± 0.00068 µM
same,"specific binding, non-transfected cells",[6],did not show any specific binding
same,Kd,"[2]; saturation, [125I] NDP-MSH, ref [38]",0.000109 ± 6.2e-05 µM
same,Kd,[3]; [8],0.000412 ± 0.000121 µM
same,Kd,[4]; [8],0.00178 ± 0.00036 µM
same,Kd,"[5]; saturation, [125I] NDP-MSH, ref [39]",0.00505 ± 0.001 µM
CSCC[C@H](NC(=O)[C@@H](NC(=O)[C@@H](N)Cc1ccc(O)cc1)C(C)C)C(=O)NCC(=O)N[C@@H](Cc1c[nH]cn1)C(=O)N[C@@H](Cc1ccccc1)C(=O)N[C@@H](CCCNC(=N)N)C(=O)N[C@@H](Cc1c[nH]c2ccccc12)C(=O)N[C@@H](CC(=O)O)C(=O)N[C@@H](CCCNC(=N)N)C(=O)N[C@@H](Cc1ccccc1)C(N)=O [γ1-MSH],Ki,[1],0.684 ± 0.007 µM
same,affinity for lamprey MCa compared to the human MC4 and MC5 receptors,[1]; [7],clearly higher affinities
same,affinity for lamprey MCa compared to the human MC1 and MC3 receptors,[1]; [7],clearly lower affinities
same,Ki,[2]; ref [39],0.00268 ± 0.00035 µM
same,Ki,[3]; ref [42],0.00745 ± 0.00255 µM
same,Ki,[4]; ref [42],51.8 ± 12 µM
same,Ki,[5]; ref [39],42.6 ± 6.6 µM
β-melanocyte stimulating hormone [β-MSH],affinity for lamprey MCa compared to the human MC4 and MC5 receptors,[1]; [7],clearly higher affinities
same,affinity for lamprey MCa compared to the human MC1 and MC3 receptors,[1]; [7],clearly lower affinities
same,Ki,[2]; ref [38],0.00253 ± 0.00093 µM
same,Ki,[3]; ref [42],0.0151 ± 0.0034 µM
same,Ki,[4]; ref [42],0.387 ± 0.208 µM
same,Ki,[5]; ref [39],14.4 ± 1.67 µM
